Measured values from patent US10080757B2 (WISCONSIN ALUMNI RESEARCH FOUNDATION, priority 2016, dated 2018).

These compounds were tested against T1, recombinant MtbUGM (Mycobacterium tuberculosis, UniProt P9WIQ1) (assay: biochemical). Conditions: carboxylic acid replacements (R3).
T1 construct: made in house
T1 sequence (P9WIQ1 whole entry): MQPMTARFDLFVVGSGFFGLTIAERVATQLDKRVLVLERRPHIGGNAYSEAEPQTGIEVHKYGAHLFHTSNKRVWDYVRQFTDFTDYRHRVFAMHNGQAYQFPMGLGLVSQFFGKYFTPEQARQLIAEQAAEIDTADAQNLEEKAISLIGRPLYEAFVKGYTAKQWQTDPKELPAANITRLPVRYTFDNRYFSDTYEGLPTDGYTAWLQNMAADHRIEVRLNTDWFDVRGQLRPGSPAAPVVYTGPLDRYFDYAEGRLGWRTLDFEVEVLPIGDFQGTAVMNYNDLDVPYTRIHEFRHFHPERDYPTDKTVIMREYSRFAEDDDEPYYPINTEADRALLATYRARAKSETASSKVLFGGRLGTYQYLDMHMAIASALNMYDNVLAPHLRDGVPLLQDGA
With `COC(=O)CC1Sc2nnc(-c3cccs3)n2N=C1c1ccc(Cl)cc1` (stereo not shown) [Compound 32, Methyl-2-(6-(4-chlorophenyl)-3-(thiophen-2-yl)-7H-[1,2,4]triazolo[3,4-b][1,3,4]thiadiazin-7-yl)acetate] the “MtbUGM inhibition (in words)” value was “neither the ester nor amide variants effectively inhibit MtbUGM”. With `COC(=O)CC1Sc2nnc(Cc3ccc(Br)cc3)n2N=C1c1ccc(Cl)cc1` (stereo not shown) [Compound 14, Methyl-2-(3-(4-bromobenzyl)-6-(4-chlorophenyl)-7H-[1,2,4]triazolo[3,4-b][1,3,4]thiadiazin-7-yl)acetate] the “MtbUGM inhibition (in words)” value was “neither the ester nor amide variants effectively inhibit MtbUGM”. For `C=CCNC(=O)CC1Sc2nnc(-c3cccs3)n2N=C1c1ccc(Cl)cc1` (stereo not shown) [Compound 34, N-allyl-2-(6-(4-chlorophenyl)-3-(thiophen-2-yl)-7H-[1,2,4]triazolo[3,4-b][1,3,4]thiadiazin-7-yl)acetamide], the “MtbUGM inhibition (in words)” value was “neither the ester nor amide variants effectively inhibit MtbUGM”. `C=CCNC(=O)CC1Sc2nnc(Cc3ccc(Br)cc3)n2N=C1c1ccc(Cl)cc1` (stereo not shown) [Compound 35, N-allyl-2-(3-(4-bromobenzyl)-6-(4-chlorophenyl)-7H-[1,2,4]triazolo[3,4-b][1,3,4]thiadiazin-7-yl)acetamide] was tested, and the “MtbUGM inhibition (in words)” value was “neither the ester nor amide variants effectively inhibit MtbUGM”.
